System: 817829-284-R-J1-PDC complex spheroids, viability
Assay: Anticancer human tumor 817829-284-R-J1-PDC patient-derived colon adenocarcinoma cell line growth inhibition [GQUAD]
Conditions: for IC50: curve of first compound; for viability, T/C: stronger effect = lower value
Source text: DNA G-quadruplex Stabilizer Agents in Combinations in Complex Spheroids
A high-throughput screen of multi-cell type tumor spheroids was designed to identify active combinations of DNA G-quadruplex stabilizer agents and targeted small molecules. Complex spheroids include a stromal component modeled by human endothelial cells (HUVEC) and fibroblasts modeled by human mesenchymal stem cells (MSCs). The concentration ranges selected for each drug and investigational agent were based upon clinically achievable concentrations if the clinical Cmax of the agent was known.
Compounds. The drugs and investigational agents: pidnarulex (CX-5461; NSC782164), APTO-253 (NSC789042), BRACO-19 (NSC847499), peposertib (NSC802822), ceralasertib (NSC780249), elimusertib (NSC800525), camonsertib (NSC841442), AZD-1390 (NSC803789), olaparib (NSC753686), talazoparib (NSC767125), ART-558 (NSC835418), sotorasib (NSC818433), MRTX-1133 (NSC836407), SN-38 (NSC673596), topotecan (NSC609699), etoposide (NSC141540), doxorubicin (NSC123127), gemcitabine (NSC613327), 5-fluorouracil (NSC19893), paclitaxel (NSC125973), vemurafenib (NSC761431), panobinostat (NSC761190), R-306465 (JNJ-16241199; NSC773264), adavosertib (NSC754352), TP-3654 (NSC805149), carboplatin (NSC241240), KSQ-4279 (NSC840948), and staurosporine (NSC755774) were obtained from the National Cancer Institute (NCI) Developmental Therapeutics Program Chemical Repository (34). The FDA-approved anticancer drug set is available from the NCI Developmental Therapeutics Program. […] The stock solutions were prepared in dimethyl sulfoxide (DMSO, Sigma-Aldrich, St. Louis, MO, cat. D2650) at 800-fold the tested concentration and stored at -70 degrees C prior to their use. All drugs and investigational agents were tested over a range starting from a high concentration at or near the clinical Cmax and decreasing in half-log increments. If the clinical Cmax for an agent had not been determined, the highest concentration tested was 10 microM.
2.3 Cell Culture. All cells were maintained in an incubator at 37 degrees C and 5% CO2 with 95% humidity. The PDC lines were cultured according to standard operating procedures established by the NCI PDMR. All PDCs were thawed and cultured in Matrigel-coated flasks prepared with a working solution of 1X Ham's F-12 nutrient mix, without supplementation (Invitrogen, cat. 11765054), 100 U/mL penicillin-streptomycin (Invitrogen, cat. 15140122), and 2.5% Matrigel (Corning Inc., cat. 354248) for the first three passages. The 857933-349-R-J2-PDC line was cultured in 6C/Colon 1B media, which includes advanced DMEM/F-12 (Thermo Fisher Scientific, cat. 12634028), 10 mM HEPES (Thermo Fisher Scientific, cat. 15630080), 1X GlutaMAX supplement (Thermo Fisher Scientific, cat. 35050061), 0.1 mg/mL primocin (InvivoGen, cat. ant-pm-2), 10% defined fetal bovine serum, heat inactivated (HyClone Laboratories Inc., cat. SH30070.03HI), 50% L-WRN conditioned media (ATCC, cat. CRL-3276), 1.25 mM N-Acetyl-L-cysteine (Sigma-Aldrich, cat. A9165), 10 mM nicotinamide (Sigma-Aldrich, cat. N0636), 1X B-27 supplement (Thermo Fisher Scientific, cat. 17504044), 1X N-2 supplement (Thermo Fisher Scientific, cat. 17502048), 10 microM Y-27632 dihydrochloride (Tocris Bioscience, cat. 1254), and 50 ng/mL human EGF recombinant protein (Thermo Fisher Scientific, cat. PHG0311). The 485176-168-R4-J1-PDC line was cultured in Panc media, which includes all 6C/Colon 1B media components plus 100 ng/mL human FGF-10 (Thermo Fisher Scientific, cat. 100-26), 500 nM SB-431542 (Selleckchem, cat. S1067), and gastrin (Tocris, cat. 3006).
[…]

[1] = second compound 0.0316 µM, first compound 0.0316 µM
[2] = second compound 0.0316 µM, first compound 0.1 µM
[3] = second compound 0.0316 µM, first compound 0.316 µM
[4] = second compound 0.0316 µM, first compound 1 µM
[5] = second compound 0.0316 µM, first compound 3.16 µM
[6] = second compound 0.0316 µM, first compound 10 µM
[7] = second compound 0.1 µM, first compound 0.0316 µM
[8] = second compound 0.1 µM, first compound 0.1 µM
[9] = second compound 0.1 µM, first compound 0.316 µM
[10] = second compound 0.1 µM, first compound 1 µM
[11] = second compound 0.1 µM, first compound 3.16 µM
[12] = second compound 0.1 µM, first compound 10 µM
[13] = second compound 0.316 µM, first compound 0.0316 µM
[14] = second compound 0.316 µM, first compound 0.1 µM
[15] = second compound 0.316 µM, first compound 0.316 µM
[16] = second compound 0.316 µM, first compound 1 µM
[17] = second compound 0.316 µM, first compound 3.16 µM
[18] = second compound 0.316 µM, first compound 10 µM
[19] = second compound 1 µM, first compound 0.0316 µM
[20] = second compound 1 µM, first compound 0.1 µM
[21] = second compound 1 µM, first compound 0.316 µM
[22] = second compound 1 µM, first compound 1 µM
[23] = second compound 1 µM, first compound 3.16 µM
[24] = second compound 1 µM, first compound 10 µM
[25] = second compound 3.16 µM, first compound 0.0316 µM
[26] = second compound 3.16 µM, first compound 0.1 µM
[27] = second compound 3.16 µM, first compound 0.316 µM
[28] = second compound 3.16 µM, first compound 1 µM
[29] = second compound 3.16 µM, first compound 3.16 µM
[30] = second compound 3.16 µM, first compound 10 µM
[31] = second compound 10 µM, first compound 0.0316 µM
[32] = second compound 10 µM, first compound 0.1 µM
[33] = second compound 10 µM, first compound 0.316 µM
[34] = second compound 10 µM, first compound 1 µM
[35] = second compound 10 µM, first compound 3.16 µM
[36] = second compound 10 µM, first compound 10 µM
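Further: spheroids exposed to agents for 7 days before readout.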
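Wherever viability, T/C is given: percent viability relative to DMSO vehicle control taken as 100%.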

## CC(C)n1c(=O)n(C)c2cnc3cc(F)c(-c4ccc(OCCCN5CCCCC5)nc4)cc3c21 + CN(C)c1ccc(Nc2c3ccc(NC(=O)CCN4CCCC4)cc3nc3cc(NC(=O)CCN4CCCC4)ccc23)cc1
Second compound 0.0316 µM
  IC50: > 10000 nM
Second compound 0.1 µM
  IC50: > 10000 nM
Second compound 0.316 µM
  IC50: > 10000 nM
Second compound 1 µM
  IC50: > 10000 nM
Second compound 3.16 µM
  IC50: > 10000 nM
Second compound 10 µM
  IC50: 414 nM
[1]
  viability, T/C: 92.8%
[2]
  viability, T/C: 104%
[3]
  viability, T/C: 108%
[4]
  viability, T/C: 107%
[5]
  viability, T/C: 105%
[6]
  viability, T/C: 116%
[7]
  viability, T/C: 101%
[8]
  viability, T/C: 107%
[9]
  viability, T/C: 94.3%
[10]
  viability, T/C: 101%
[11]
  viability, T/C: 105%
[12]
  viability, T/C: 108%
[13]
  viability, T/C: 96.8%
[14]
  viability, T/C: 98.3%
[15]
  viability, T/C: 96%
[16]
  viability, T/C: 102%
[17]
  viability, T/C: 104%
[18]
  viability, T/C: 110%
[19]
  viability, T/C: 94.1%
[20]
  viability, T/C: 109%
[21]
  viability, T/C: 97.6%
[22]
  viability, T/C: 96.2%
[23]
  viability, T/C: 91.1%
[24]
  viability, T/C: 94.6%
[25]
  viability, T/C: 90.8%
[26]
  viability, T/C: 105%
[27]
  viability, T/C: 89.4%
[28]
  viability, T/C: 70.8%
[29]
  viability, T/C: 61.1%
[30]
  viability, T/C: 54.5%
[31]
  viability, T/C: 72.7%
[32]
  viability, T/C: 61.9%
[33]
  viability, T/C: 51.7%
[34]
  viability, T/C: 46%
[35]
  viability, T/C: 21%
[36]
  viability, T/C: 13.2%

## CC1COCCN1c1cc(-c2ccnn2C)c2ccnc(-c3ccn[nH]3)c2n1 (centres undefined) + CN(C)c1ccc(Nc2c3ccc(NC(=O)CCN4CCCC4)cc3nc3cc(NC(=O)CCN4CCCC4)ccc23)cc1
Second compound 0.0316 µM
  IC50: < 31.6 nM
Second compound 0.1 µM
  IC50: < 31.6 nM
Second compound 0.316 µM
  IC50: < 31.6 nM
Second compound 1 µM
  IC50: < 31.6 nM
Second compound 3.16 µM
  IC50: < 31.6 nM
Second compound 10 µM
  IC50: < 31.6 nM
[1]
  viability, T/C: 49.1%
[2]
  viability, T/C: 21.1%
[3]
  viability, T/C: 10.9%
[4]
  viability, T/C: 7.46%
[5]
  viability, T/C: 6.76%
[6]
  viability, T/C: 6.4%
[7]
  viability, T/C: 43.7%
[8]
  viability, T/C: 19.4%
[9]
  viability, T/C: 9.94%
[10]
  viability, T/C: 7.09%
[11]
  viability, T/C: 6.81%
[12]
  viability, T/C: 5.85%
[13]
  viability, T/C: 41.3%
[14]
  viability, T/C: 20.7%
[15]
  viability, T/C: 9.46%
[16]
  viability, T/C: 9.2%
[17]
  viability, T/C: 6.26%
[18]
  viability, T/C: 5.57%
[19]
  viability, T/C: 45.9%
[20]
  viability, T/C: 19.1%
[21]
  viability, T/C: 9.31%
[22]
  viability, T/C: 8.05%
[23]
  viability, T/C: 7.11%
[24]
  viability, T/C: 5.77%
[25]
  viability, T/C: 36.6%
[26]
  viability, T/C: 16.5%
[27]
  viability, T/C: 9.69%
[28]
  viability, T/C: 9.19%
[29]
  viability, T/C: 7.57%
[30]
  viability, T/C: 5.75%
[31]
  viability, T/C: 25%
[32]
  viability, T/C: 16.9%
[33]
  viability, T/C: 8.98%
[34]
  viability, T/C: 6.93%
[35]
  viability, T/C: 5.14%
[36]
  viability, T/C: 3.02%
